Values of other authors as cited in patent US20080318919A1, “Cefquinome Compositions and Methods of Their Use” (Intervet International B.V., priority 2005, published 2008).

System: Mannheimia haemolytica
Settings: concentration that inhibits the growth of 90% of the target pathogen

CO/N=C(\C(=O)N[C@@H]1C(=O)N2C(C(=O)[O-])=C(C[n+]3cccc4c3CCCC4)CS[C@H]12)c1csc(N)n1 [cefquinome, Cefquinome]
MIC90: about 0.25 μg/ml
